“And” between values parts separate entries of the source, which are not always exact repeats. Equal entries are not always repeated. Where two headings read alike, the source gives them in different places.
How the values were obtained:
[1] = test system: Fusobacterium nucleatum (ATCC 10953); type: cell-based
Description: The objective of this study was to evaluate the use of pure cultures or oral malodor-causing bacteria as the source of malodor instead of human subjects. Cultures of Fusobacterium nucleatum, Veillonella parvula and Prevotella sp. are well recognized producers of VSC's due to their ability to digest amino acids including cysteine and methionine. The most widely investigated of these is F. nucleatum. Therefore, this organism was selected for this in vitro test. Evaluating a finished oral care composition spiked with Fusobacterium was considered, however, the detector in the Halimeter was adversely affected by alcohols. […] Therefore, the following methodology was applied to screen the effectiveness of various zinc salt solutions in reducing VSC's: Fusobacterium nucleatum (ATCC #10953) was transferred twice from frozen stock cultures and maintained by daily transfers in […]' broth (Difco or BBL). […] The tube is a scaled down version of a Kontes #181000 adapter inlet with hose connectors which is coupled to a 18×100 mm glass tube fitted with a tapered ground fitting. After one minute the Halimeter was connected to a port on the reaction tube and allowed to sample the VSC's in the solution via the vacuum pump. The peak reading recorded by the Halimeter was taken as the VSC measurement. The level of inoculum selected was determined by ppb of VSC's generated in inoculated water alone. […] Three different zinc salt solutions, ZnCl2, ZnSO4, and ZnO, were evaluated. […] Water was used as the control. (Table 1) The heading D% refers to the difference between the measurement of VSCs in ppb using a pure water solution and the measurement of VSCs in ppb using varying concentrations of zinc salts. Each experiment was run in triplicate.

[2] = Overnight malodor study: morning mouth air VSC (H2 S, CH3 SH) by gas chromatography; type: in vivo, human
Experimental: Subjects participating in this study maintained their normal nightly oral hygiene procedure for the duration of the study. In addition, all participants were asked to refrain from eating odoriferous foods at least 24 hours prior to their appointment for measurement of VSC's.
Subjects reported directly to the laboratory each morning for measurement of mouth air VSC levels. This measurement was the baseline (pretreatment) level of VSC. Selection for the study was based on morning levels of H2 S above 30 parts per billion (ppb) and CH3 SH above 20 ppb. Subjects fulfilling this criteria received a treatment to use that evening. Immediately before retiring to bed, the subjects rinsed vigorously for 30 seconds using the assigned treatment. The following morning the subject returned to the lab for analysis of mouth air VSC. This measurement was the post-treatment value. These treatments were assigned in a random, crossover design experiment.
Levels of VSC in subject's mouth air were determined using a gas chromatography system equipped with a flame photometric detector. […] Analysis of variance tested for significant treatment differences.
Differences between treatment were tested by analysis of variance using post minus pretreatment levels of mouth air VSCs.

[3] = Adherence of zinc to simulated dental plaque on steel wires, fluorimetric with 8-hydroxyquinoline
Description: To determine how readily zinc adheres to dental plaque, the adherence of zinc to simulated plaque grown on steel wires was fluorimetrically measured. Increasing concentrations of zinc solutions were used in the test oral compositions.
After the simulated plaque is developed on the wires, it is then immersed in the oral composition to be tested, which is followed by a rinse. Thereafter, the plaque coated wires are immersed in a 0.01% solution of 8-hydroxyquinoline prepared by dissolving the 8-hydroxyquinoline in 100% ethanol. Twenty (20) ml of this solution were then brought q.s. up to the correct concentration.

[4] = cited from earlier work
[5] = 1 hour after using 31 or 18 mM; cited from earlier work
[6] = 0.25% zinc chloride, significant reduction from Baseline
[7] = individual subjects 1-13 in table order, morning after 20 ml of 0.25% zinc chloride, 30 second rinse at bedtime
[8] = individual subjects 1-13 in table order, pretreatment, zinc chloride arm
[9] = mean of 13 subjects, pretreatment, zinc chloride arm

| SMILES | % D, difference from water in VSC ([1]; 0.01%, first run) | % D, difference from water in VSC ([1]; 0.01%, second run) | % D, difference from water in VSC ([1]; 0.01%, third run) | % D, difference from water in VSC ([1]; 0.05%, first run) | % D, difference from water in VSC ([1]; 0.05%, second run) | % D, difference from water in VSC ([1]; 0.05%, third run) | % D, difference from water in VSC ([1]; 0.1%, first run) | % D, difference from water in VSC ([1]; 0.1%, second run) | % D, difference from water in VSC ([1]; 0.1%, third run) | % D, difference from water in VSC ([1]; 0.2%, first run) | % D, difference from water in VSC ([1]; 0.2%, second run) | % D, difference from water in VSC ([1]; 0.2%, third run) | % D, difference from water in VSC ([1]; 0.4%, first run) | % D, difference from water in VSC ([1]; 0.4%, second run) | % D, difference from water in VSC ([1]; 0.4%, third run) | further results |
| --- | --- | --- | --- | --- | --- | --- | --- | --- | --- | --- | --- | --- | --- | --- | --- | --- |
| [O]=[Zn] [ZnO, zinc oxide] | -53.7% | -54.9% | -40.0% | -48.7% | -51.8% | -37.5% | -58.2% | -57.6% | -42.1% | -59.4% | -63.5% | -47.9% | -60.2% | -70.5% | -54.1% |  |
| [Cl-].[Cl-].[Zn+2] [ZnCl2, zinc chloride] | -47.4% | -58.3% | -37.0% | -53.0% | -57.5% | -40.0% | -53.8% | -54.6% | -43.1% | -59.8% | -60.4% | -47.9% | -63.2% | -58.9% | -47.4% | CH3 SH, Probability (p), t-test for differences from baseline [2, 6]: .0209; H2 S, Probability (p), t-test for differences from baseline [2, 6]: .0074; CH3 SH levels, Post [2, 7]: 50 ppb and 20 ppb and 63 ppb and 176 ppb and 41 ppb and 35 ppb and 29 ppb and 25 ppb and 133 ppb and 47 ppb and 16 ppb; H2 S levels, Post [2, 7]: 41 ppb and 22 ppb and 162 ppb and 268 ppb and 129 ppb and 106 ppb and 35 ppb and 318 ppb and 32 ppb and 94 ppb and 17 ppb and 97 ppb; CH3 SH levels, Baseline [2, 8]: 173 ppb and 46 ppb and 358 ppb and 115 ppb and 249 ppb and 61 ppb and 51 ppb and 99 ppb and 170 ppb and 217 ppb and 44 ppb and 59 ppb and 34 ppb; H2 S levels, Baseline [2, 8]: 344 ppb and 53 ppb and 522 ppb and 204 ppb and 644 ppb and 310 ppb and 91 ppb and 509 ppb and 191 ppb and 175 ppb and 81 ppb and 110 ppb and 170 ppb; CH3 SH levels, Post, mean (x) ([2]; mean of 13 subjects, morning after 20 ml of 0.25% zinc chloride, baseline mean 129, water 76 to 65): 57 ppb; H2 S levels, Post, mean (x) ([2]; mean of 13 subjects, morning after 20 ml of 0.25% zinc chloride, baseline mean 262, water 164 to 113): 114 ppb; CH3 SH levels, Baseline, mean (x) [2, 9]: 129 ppb; H2 S levels, Baseline, mean (x) [2, 9]: 262 ppb; development of VSC's overnight in vivo ([2]; summary statement in words): prevent or inhibit; amount of fluorescence in dental plaque vs concentration ([3]; ZnCl2 0.001%, 0.010%, 0.025%, 0.050% and 0.100%): the amount of fluorescence increased with increasing zinc concentration; lowest concentration at which fluorescence from zinc was detectable in dental plaque ([3]; base oral composition identical to Example 2, excitation 360 nm, emission 530 nm or 590 nm): 0.001 % (w/v) |
| CC1CCC(C(C)C)C(O)C1 (stereo not drawn) [Menthol, hexahydrothymol, reference compound] |  |  |  |  |  |  |  |  |  |  |  |  |  |  |  | solubility in alcohol [4]: highly soluble |
| O=S(=O)([O-])[O-].[Zn+2] [ZnSO4, zinc sulfate] | -52.0% | -67.7% | -38.7% | -53.6% | -51.3% | -42.5% | -54.7% | -58.6% | -42.4% | -58.1% | -67.4% | -48.1% | -65.0% | -58.2% | -51.0% |  |
| [Cl-].[Cl-].[Zn+2] [zinc] |  |  |  |  |  |  |  |  |  |  |  |  |  |  |  | levels of CH3 SH and H2 S compared to baseline levels ([2]; overnight, morning breath, result in words): significantly reduced |
| CC(C)[C@@H]1CC[C@@H](C)C[C@H]1OC(=O)CCC(=O)O [monomenthyl succinate] |  |  |  |  |  |  |  |  |  |  |  |  |  |  |  | solubility in water [4]: sparingly soluble; solubility in oil ([4]; relative to water): more soluble |
| O=S(=O)([O-])c1ccc(O)cc1.O=S(=O)([O-])c1ccc(O)cc1.[Zn+2] [zinc phenolsuphonate] |  |  |  |  |  |  |  |  |  |  |  |  |  |  |  | oral zinc concentration [5]: markedly increased |

— patent US6121315A, “Oral compositions containing a zinc compound” (priority 1999, dated 2000)
